From patent US11415579B2, “Assay for measuring a rate of reaction between a target and a ligand candidate” (Imperial College Innovations Ltd., priority 2016, dated 2022)

Legend:
[1] = biological target: T1, Cdk2(H71C) (C177A) (Homo sapiens, UniProt P24941, C177A/H71C); assay: Kinetic thiol consumption assay with Cdk2 mutant H71C; type: binding; set-up: key to Rate enhancement, Cdk2 H71C: rate constant with Cdk2 ÷ rate constant with model thiol (fold); conditions: additional mutation C177A; for Rate constant with Cdk2 H71C: Protein: Cdk2, cysteine position H71C, in h^-1
T1 construct: poly-histidine; made in house; host or cells: E. coli
Procedure, shortened: (§1)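 5 μM thiol, degassed phosphate pH 8, 2% v/v immobilized TCEP beads; 1 h RT; fluorescence ex 380/em 470 nm; normalized vs DMSO/thiol-only; first-order exponential decay fit → rate constant; Cdk2 k / model-thiol k = rate enhancement per acrylamide.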

[2] = biological target: T2, human cyclin-dependent kinase 2 (Cdk2) (Homo sapiens, UniProt P24941); assay: Kinetic thiol consumption assay with wild type Cdk2 (C177); type: binding; set-up: key to Rate enhancement, Cdk2 WT: k(Cdk2) divided by k(model thiol); Rate constant with Cdk2 (k(Cdk2)): unit not given here; conditions: for Rate constant with Cdk2 (k(Cdk2)): 500 μM ligand, 5 μM thiol, phosphate buffer pH 8; for Rate enhancement, Cdk2 WT: no additional mutations; for Rate constant with Cdk2 WT: Protein: Cdk2, cysteine position WT, in h^-1; for k(Cdk2)/k(Cdk2_mut) rate enhancement: model thiol Cdk2[C177A, F80C, K278C]; for k(Cdk2)/k(GSH) rate enhancement: model thiol glutathione
T2 construct: poly-histidine; made in house; host or cells: E. coli
Procedure, shortened: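 Thiol 5 μM (Cdk2 or model thiol), degassed phosphate buffer pH 8, TCEP beads 2% v/v. Plates incubated 1 h RT, ex/em 380/470 nm. First-order decay fit → rate constant; ratio Cdk2/model thiol = rate enhancement.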

[3] = biological target: T3, Cdk2[C177A, F80C, K278C] (Homo sapiens, UniProt P24941, C177A/F80C/K278C); assay: Kinetic thiol consumption assay with mutant Cdk2 as model thiol; type: binding; set-up: unit not given here; conditions: 500 μM ligand, 5 μM thiol, phosphate buffer pH 8
T3 construct: poly-histidine; made in house; host or cells: E. coli
Procedure, shortened: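 Model thiol: His-tagged human Cdk2 C177A/F80C/K278C (two engineered surface cysteines), E. coli-expressed, 5 μM in degassed phosphate buffer pH 8 with immobilized TCEP beads (2% v/v). Fluorescence (ex/em 380/470 nm) followed over time at room temperature, normalized to DMSO/thiol control. First-order decay fit gives rate constants.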

[4] = biological target: T4, Cdk2(N272C) (C177A) (Homo sapiens, UniProt P24941, C177A/N272C); assay: Kinetic thiol consumption assay with Cdk2 mutant N272C; type: binding; set-up: key to Rate enhancement, Cdk2 N272: rate constant with Cdk2 ÷ rate constant with model thiol (fold); conditions: for Rate enhancement, Cdk2 N272: Cdk2 N272, additional mutation C177A; for Rate constant with Cdk2 N272C: Protein: Cdk2, cysteine position N272C, additional mutation C177A, in h^-1
T4 construct: poly-histidine; made in house; host or cells: E. coli
Procedure, shortened: as §1

[5] = biological target: T5, Cdk2(C177A, F80C) (Homo sapiens, UniProt P24941, C177A/F80C); assay: Kinetic thiol consumption assay with Cdk2 mutant F80C, incl. kobs versus concentration (Kd, k2); type: binding; set-up: key to Rate enhancement, Cdk2 F80C: Cdk2 rate constant divided by model-thiol rate constant; conditions: additional mutation C177A; for Rate constant with Cdk2 F80C: Protein: Cdk2, cysteine position F80C, in h^-1
T5 construct: poly-histidine; made in house; host or cells: E. coli
Procedure, shortened: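 His-tagged Cdk2(C177A/F80C) from E. coli or model thiol, 5 μM in degassed phosphate buffer pH 8 with TCEP beads, reacted with acrylamide ligands; fluorescence (ex/em 380/470 nm) normalized to DMSO control and fitted to first-order decay for kobs. Kd and k2 obtained from hyperbolic fit of kobs versus ligand concentration.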

[6] = Kinetic thiol consumption assay with model thiol glutathione; type: physicochemical; set-up: Rate constant with glutathione (k(GSH)): unit not given here; conditions: for Rate constant with glutathione (k(GSH)): 500 μM ligand, 5 μM thiol, phosphate buffer pH 8; for Rate constant with Glutathione: Protein: Glutathione, cysteine position NA, in h-1
Procedure, shortened: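 First, 5 μM glutathione in degassed phosphate buffer (pH 8) receives immobilized TCEP beads (2% v/v). Then acrylamide is added and plates incubate 1 h at room temperature. Finally, fluorescence (380/470 nm) is normalized and fitted to first-order decay for rate constants.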

[7] = biological target: T6, Cdk2(T182C) (C177A) (Homo sapiens, UniProt P24941, C177A/T182C); assay: Kinetic thiol consumption assay with Cdk2 mutant T182C; type: binding; set-up: key to Rate enhancement, Cdk2 T182C: rate constant with Cdk2 ÷ rate constant with model thiol (fold); conditions: additional mutation C177A; for Rate constant with Cdk2 T182C: Protein: Cdk2, cysteine position T182C, in h^-1
T6 construct: poly-histidine; made in house; host or cells: E. coli
Procedure, shortened: as §1

[8] = biological target: T7, Cdk2(R122C) (C177A) (Homo sapiens, UniProt P24941, C177A/R122C); assay: Kinetic thiol consumption assay with Cdk2 mutant R122C; type: binding; set-up: key to Rate enhancement, Cdk2 R122C: rate constant with Cdk2 ÷ rate constant with model thiol (fold); conditions: additional mutation C177A; for Rate constant with Cdk2 R122C: Protein: Cdk2, cysteine position R122C, in h-1
T7 construct: poly-histidine; made in house; host or cells: E. coli
Procedure, shortened: as §1

[9] = biological target: T8, Cdk2(S276C) (C177A) (Homo sapiens, UniProt P24941, C177A/S276C); assay: Kinetic thiol consumption assay with Cdk2 mutant S276C; type: binding; set-up: key to Rate enhancement, Cdk2 S276C: rate constant with Cdk2 ÷ rate constant with model thiol (fold); conditions: additional mutation C177A; for Rate constant with Cdk2 S276C: Protein: Cdk2, cysteine position S276C, in h^-1
T8 construct: poly-histidine; made in house; host or cells: E. coli
Procedure, shortened: as §1

[10] = biological target: T9, Cdk2(S181C) (C177A) (Homo sapiens, UniProt P24941, C177A/S181C); assay: Kinetic thiol consumption assay with Cdk2 mutant S181C; type: binding; set-up: key to Rate enhancement, Cdk2 S181C: rate constant with Cdk2 ÷ rate constant with model thiol (fold); conditions: additional mutation C177A; for Rate constant with Cdk2 S181C: Protein: Cdk2, cysteine position S181C, in h^-1
T9 construct: poly-histidine; made in house; host or cells: E. coli
Procedure, shortened: as §1

For `C=CC(=O)N1CCN(Cc2ccc(Cl)cc2)CC1` [EL-1183], the “Rate enhancement, Cdk2 H71C” value [1] was 1.823, the “Rate constant with Cdk2 H71C” value [1] was 0.01195 and the “Rate constant with Cdk2 (k(Cdk2))” value [2] was 0.00376. The “Rate enhancement, Cdk2 WT” value [2] was 0.574, the “Rate constant with Cdk2 WT” value [2] was 0.003762 and the “k(Cdk2)/k(Cdk2_mut) rate enhancement” value [2] was 0.4353. The “k(Cdk2)/k(GSH) rate enhancement” value [2] was 0.5564, the “Rate constant with Cdk2[C177A, F80C, K278C] (k(Cdk2_mut))” value [3] was 0.00864 and the “Rate enhancement, Cdk2 N272” value [4] was 0.4193. The “Rate constant with Cdk2 N272C” value [4] was 0.002748, the “Rate enhancement, Cdk2 F80C” value [5] was 2.859 and the “Rate constant with Cdk2 F80C” value [5] was 0.01874. The “Rate constant with glutathione (k(GSH))” value [6] was 0.00676, the “Rate constant with Glutathione” value [6] was 0.006554 and the “Rate enhancement, Cdk2 T182C” value [7] was 2.26. The “Rate constant with Cdk2 T182C” value [7] was 0.01481, the “Rate enhancement, Cdk2 R122C” value [8] was 0.5841 and the “Rate constant with Cdk2 R122C” value [8] was 0.003828. For the same compound, the “Rate enhancement, Cdk2 S276C” value [9] was 0.8088, the “Rate constant with Cdk2 S276C” value [9] was 0.005301 and the “Rate enhancement, Cdk2 S181C” value [10] was 0.8531. For the same compound, the “Rate constant with Cdk2 S181C” value [10] was 0.005591.

With `C=CC(=O)N1CCn2c(Cc3ccccc3)nnc2C1` [CA-092] the “Rate enhancement, Cdk2 H71C” value [1] was 2.689, the “Rate constant with Cdk2 H71C” value [1] was 0.2247 and the “Rate constant with Cdk2 (k(Cdk2))” value [2] was 0.2634. For the same compound, the “Rate enhancement, Cdk2 WT” value [2] was 3.152, the “Rate constant with Cdk2 WT” value [2] was 0.2634 and the “k(Cdk2)/k(Cdk2_mut) rate enhancement” value [2] was 21.31. The “k(Cdk2)/k(GSH) rate enhancement” value [2] was 3.224, the “hit classification, Example 2” value ([2]; significant rate enhancement against both model thiols (GSH and mutant Cdk2)) was “hits” and the “Rate constant with Cdk2[C177A, F80C, K278C] (k(Cdk2_mut))” value [3] was 0.01236. For the same compound, the “Rate enhancement, Cdk2 N272” value [4] was 7.163, the “Rate constant with Cdk2 N272C” value [4] was 0.5985 and the “Rate enhancement, Cdk2 F80C” value [5] was 0.1058. The “Rate constant with Cdk2 F80C” value [5] was 0.008842, the “Rate constant with glutathione (k(GSH))” value [6] was 0.0817 and the “Rate constant with Glutathione” value [6] was 0.08356. The “Rate enhancement, Cdk2 T182C” value [7] was 6.483, the “Rate constant with Cdk2 T182C” value [7] was 0.5417 and the “Rate enhancement, Cdk2 R122C” value [8] was 2.269. The “Rate constant with Cdk2 R122C” value [8] was 0.1896, the “Rate enhancement, Cdk2 S276C” value [9] was 6.528 and the “Rate constant with Cdk2 S276C” value [9] was 0.5455. For the same compound, the “Rate enhancement, Cdk2 S181C” value [10] was 0.9146 and the “Rate constant with Cdk2 S181C” value [10] was 0.07642.
